Assay results: patent US20230338529A1, “COMPOSITIONS FOR ALTERING A MICROGLIAL CELL, AND METHODS OF USE THEREFORE” (The Children's Medical Center Corporation, priority 2020, published 2023)

Tests used:
microglia = assay: Microglia depletion in vivo with PLX3397, P2Y12-stained spinal cord; parameters: species or system mice; conditions: 7 days after PLX3397 treatment; P2Y12 staining
Experimental: Mice were given a lethal dose of anesthesia and transcardially perfused with PBS followed by 4% paraformaldehyde (PFA). PFA fixed tissues were incubated in 30% sucrose in PBS for 3 days at 4° C., embedded in OCT (Tissue-Tek), frozen in a dry ice/ethanol bath, and stored at -80° C. Transverse and sagittal sections were cut on a cryostat at 30 µm thick and stored at -20° C. until processed. Before staining, sections were warmed to room temperature and dried on a 37° C. slide warmer for 2 h. Sections then were treated with a blocking solution containing 10% normal donkey serum and 0.5% Triton-100 for 2 hours at room temperature. The primary antibodies used were: rabbit/goat anti-5-HT [Immunostar (20080/20079), 1: 5,000]; rabbit anti-GFAP [DAKO (Z0334), 1:600]; rat anti-GFAP [Thermo Fisher (13-0300), 1:600]; rabbit anti-P2Y12 [AnaSpec (AS-55043A), 1:200]; rat anti-CD68 [Bio-Rad (MCA1957), 1:600]; rabbit anti-Fibronectin [Millipore (AB2033), 1:200]; rabbit anti- Collagen I [Abcam (ab21286), 1:200]; chicken anti-GFP [Abcam (ab13970), 1:400]; goat anti-SPP1 [R&D (AF808), 1:400]; mouse anti-Ly6G/Ly6C [R&D (MAB1037), 1:200]; mouse anti-CSPG [Sigma-Aldrich (C8035), 1:200]; rabbit anti-CSPG [Sigma-Aldrich (L9393), 1:500]; rabbit anti-RFP [Abcam (ab34771), 1:400]. […]

[1] = test system: neonatal spinal cord lesion after P2 crush; assay: P2 spinal cord crush with microglia depletion: bridge formation, wound healing and axon regrowth by immunostaining; format: in vivo, mice
Experimental: Newborn pups (P2/P7) were anesthetized by isoflurane. A laminectomy was performed at T10 until the spinal cord was exposed completely from side-to-side. The spinal cord was then fully crushed for 2 seconds with forceps with a width of 0.1 mm in the last 5 mm of tips. The muscles and skin were sutured in layers with 6-0 sutures. EMLA topical cream was used for post-surgery analgesia. Animals then were warmed up and kept in a box containing the bedding from the original cage for at least 30 minutes. After that, the closed surgical site was rubbed with the feces from the mom using a Q-tip and then returned to the mom. Feeding was closely monitored in the first week after surgery. Nutra-Gel diets (Bio-Serv) or breeder chow diets were provided to avoid cannibalism. […] In case of bladder dysfunction, bladder emptying was performed once a day until bladder function was restored.
Mice were given a lethal dose of anesthesia and transcardially perfused with PBS followed by 4% paraformaldehyde (PFA). PFA fixed tissues were incubated in 30% sucrose in PBS for 3 days at 4° C., embedded in OCT (Tissue-Tek), frozen in a dry ice/ethanol bath, and stored at -80° C. Transverse and sagittal sections were cut on a cryostat at 30 µm thick and stored at -20° C. until processed. Before staining, sections were warmed to room temperature and dried on a 37° C. slide warmer for 2 h. Sections then were treated with a blocking solution containing 10% normal donkey serum and 0.5% Triton-100 for 2 hours at room temperature. The primary antibodies used were: rabbit/goat anti-5-HT [Immunostar (20080/20079), 1: 5,000]; rabbit anti-GFAP [DAKO (Z0334), 1:600]; rat anti-GFAP [Thermo Fisher (13-0300), 1:600]; rabbit anti-P2Y12 [AnaSpec (AS-55043A), 1:200]; rat anti-CD68 [Bio-Rad (MCA1957), 1:600]; rabbit anti-Fibronectin [Millipore (AB2033), 1:200]; rabbit anti- Collagen I [Abcam (ab21286), 1:200]; chicken anti-GFP [Abcam (ab13970), 1:400]; goat anti-SPP1 [R&D (AF808), 1:400]; mouse anti-Ly6G/Ly6C [R&D (MAB1037), 1:200]; mouse anti-CSPG [Sigma-Aldrich (C8035), 1:200]; rabbit anti-CSPG [Sigma-Aldrich (L9393), 1:500]; rabbit anti-RFP [Abcam (ab34771), 1:400]. Secondary antibodies included: Alexa Fluor 488-conjugated donkey anti chicken/rabbit; Alexa Fluor 555-conjugated donkey anti goat/rabbit/mouse and Dylight 650-conjugated donkey anti rat (all from Invitrogen). Spinal cord transverse and sagittal sections were imaged with a confocal laser-scanning microscope (Zeiss 700 or Zeiss 710). Figures showing large longitudinal spinal cord section were acquired using Zeiss 710 with image stitching and/or stack software.
The lesion site was defined and traced using Collagen I, Fibronectin, GFAP, P2Y12, CD68, CD31, CSPG, Laminin or Ly6G/Ly6C staining. Mice were perfused separately at 3, 7 or 14 days after spinal cord crush as described above to visualize lesion site. Cell nuclei were stained by incubation with DAPI for 30 seconds. Immunostaining intensity in the lesion site (100 µm width region in the epicenter) was measured using ImageJ software and normalized to the intact (proximal) region of the spinal cord.
To quantify the regenerating/late-arriving 5-HT/CST axons after spinal cord crush, sagittal sections through the lesion were stained with antibodies against 5-HT or RFP. Images of 5-6 sections for each animal were taken under a 10X objective and used for quantification. A series of rectangular segments 100 µm wide and 400 µm high covering the dorsal-ventral aspect of the cord were superimposed onto the sagittal sections, starting from lesion center up to a defined distance caudal. After subtracting the background, the pixel value of each segment was normalized by dividing with the rostral segment (1 mm rostral). The results were presented as a ratio at different distances (axons density index).
To deplete microglia in vivo, adult mice were given the CSF1R inhibitor PLX3397 mixed into AIN-76A standard chow (Research Diets). […]

FC(F)(F)c1ccc(CNc2ccc(Cc3c[nH]c4ncc(Cl)cc34)cn2)cn1 [PLX3397]
microglia depletion in neonatal spinal cord (microglia): most microglia were depleted | bridge formation (fibronectin, CD68 staining) ([1]; P2 crush, 3 dpi): defects of bridge formation | wound healing and axon regeneration after neonatal crush (5-HT, GFAP staining) ([1]; P2 crush, 7 dpi): impairs wound healing and axon regeneration | GFAP+ reactive astrocytes in the lesion ([1]; P2 crush, 14 dpi): strong GFAP+ reactive astrocytes accumulating in the epicenter | accumulation of basal lamina components (CSPG, laminin) ([1]; P2 crush, 14 dpi): limited accumulations | axon growth at the lesion (5-HT) ([1]; P2 crush, 14 dpi): majority of axons stalled at the lesion epicenter | blood vessels in the lesion (CD31) ([1]; P2 crush, 14 dpi): blood vessels were absent | bridge formation between the two severed stumps ([1]; P2 injury model, 3 or 7 dpi): impaired bridge formation
